Source: patent US10632177B2, “Myoblast differentiation promoter” (NITTA GELATIN INC., priority 2012, dated 2020)
Non-standard residues stand in square brackets, D forms with d. No end group written: not given here. Hyp = O=C(O)[C@@H]1C[C@@H](O)CN1

What follows are substances tested on C2C12 myoblast (assay: Myoblast differentiation promotion test in myoblast culture (Western blotting of differentiation markers)). Settings: Western blot band, numerical value in relation to 100 = control, 100 μM final concentration, eight days exposure.
Format: cell-based, mouse
Procedure: Myoblast Differentiation Promotion Test in Myoblast Culture
For culture of C2C12 myoblast derived from mouse, a D-MEM culture medium containing 10% FBS, 100 units/mL sodium penicillin G, 100 μg/mL streptomycin and 1.0 g/L NaHCO3 (D-MEM culture medium (10% FBS, +P/S)) was used. Culture was conducted in an incubator at 37° C. containing 95% air and 5% CO2. In the condition that C2C12 myoblast was 90% confluent, the culture medium was replaced by a D-MEM culture medium including 2% horse serum (HS), 100 units/mL sodium penicillin G, 100 μg/mL streptomycin and 1.0 g/L NaHCO3 (D-MEM culture medium (2% HS+P/S)), and then the D-MEM culture medium (2% HS+P/S) replacement was repeated every two days to lead to differentiation into myotube cells. The peptides of Examples 1 to 21 and Comparative Examples 1 to 3 were added in a final concentration of 100 μM to the culture medium every the culture medium replacement, and cells were continuously exposed thereto for eight days.
The Western blotting method was conducted in the following procedure. The cells used for protein measurement were washed twice with PBS at the time of recovery, and the cells were scraped with a cell scraper and transferred to a tube, and centrifuged at 4° C. and at 250×g for 3 minutes, and then PBS was completely removed. For each tube, the cells were suspended in 100 μL of a buffer (20 mM HEPES-NaOH (pH 7.5), 0.5% NP-40, 1 mM EDTA, 100 μM AEBSF, 1 μg/mL aprotinin, 10 μg/mL leupeptin, 1 mM DTT, 1 mM sodium ortho-vanadate, 10 mM sodium fluoride, 10 μM ammonium molybdate, 10 mM sodium pyrophosphate), and then crushed under ice cooling for 5 seconds three times for each sample by using an ultrasonic disperser, followed by quantification of the amount of a protein. Quantification of the amount of a protein was conducted according to the method of Bradford using bovine serum albumin as a standard protein. After end of SDS-PAGE, a blotting device was used to conduct electro-transferring at 1.5 mA per 1 cm^2 of a membrane for 1 hour on a PVDF membrane equilibrated with methanol and subjected to pre-wetting by infiltration with a transfer buffer (48 mM Tris, 39 mM glycine). After end of the transferring, the PVDF membrane was blocked with PBS (−) containing 6% skim milk for 1 hour. A primary antibody was diluted in the following manner, and an antigen-antibody reaction was conducted overnight at 4° C. A peroxidase-conjugated secondary antibody against each primary antibody was diluted in PBS (−) containing 6% skim milk in the ratios: mouse anti-myosin heavy chain monoclonal antibody (MF20) culture supernatant 1/2000, mouse anti-tropomyosin monoclonal antibody (CH1) culture supernatant 1/2000, rabbit anti-GAPDH polyclonal antibody 1/3000, peroxidase-conjugated anti-mouse IgG 1/5000, and peroxidase-conjugated anti-rabbit IgG 1/2000, allowed to react for 30 minutes, and washed three times with PBS (−) for 10 minutes. Then the membrane was immersed in Immobilon™ Western Chemiluminescent HRP Substrate for 3 minutes, and detected by LAS-4000 (GE Healthcare, Buckinghamshire, UK). A band was converted into numbers by imageJ, and expressed in a numerical value in relation to 100 which was the value of the control.
With Hyp-Gly [Example 7] the Myosin heavy chain was 334 and the Tropomyosin was 419. Substance Ala-[Hyp]-Gly [Example 1] has a Myosin heavy chain of 218 and a Tropomyosin of 191. In the case of Pro-Ala [Example 6], the Myosin heavy chain is reported as 131 and the Tropomyosin is reported as 169. Gly-Pro-[Hyp] [Example 5] was tested, and the Myosin heavy chain was 217 and the Tropomyosin was 165. Glu-Hyp [Example 4] gave a Myosin heavy chain of 214 and a Tropomyosin of 140. In the case of “Ala-Hyp [Comparative Example 1, reference compound]”, the Myosin heavy chain is reported as 62 and the Tropomyosin is reported as 44. Pro-Hyp [Example 8] gave a Myosin heavy chain of 278 and a Tropomyosin of 307. In the case of [Hyp]-Gly-Pro [Example 2], the Myosin heavy chain is reported as 166 and the Tropomyosin is reported as 181. In the case of Leu-Hyp [Example 3], the Myosin heavy chain is reported as 143 and the Tropomyosin is reported as 195.
